Measured values from paper PMC9101642 (Molecules, 2022).
Where two headings read alike, the source gives them in different places. Marks after values point to notes of the source that are not given here.

Key:
[1] = test system: p53 promoter activity (p21 promoter); test: qChIP of ERα-p53 interaction on the p21 promoter in MCF-7; type: cell-based, human
[2] = test system: MNU-induced breast cancer; test: In vivo anticancer screening, MNU-induced mammary tumorigenesis; parameters: species or system female Wistar rats
[3] = Lipophilicity by shake-flask method; conditions: pH 7.4
[4] = rat, in vivo
[5] = Serum biochemical markers after treatment of MNU-induced rats; type: in vivo, Wistar rats; parameters: TBC: unit not given here; conditions: for ALP (A/L) / ALT (A/L) / AST (U/L) / γ-GT (U/L): serum; for TBC: total bilirubin content
Summary of the method: (§1)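 Mammary tumours induced in rats by MNU 50 mg/kg i.p. at day 50; after two weeks, compounds given orally at 5 or 50 mg/kg once daily for six weeks. Serum AST, ALT (340 nm), ALP (405 nm) and bilirubin measured; liver homogenate GSH, CAT, MDA by colorimetry; plasma binding by ultrafiltration at 37°C with BCA protein read-out.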

[6] = test system: MCF-7 cell lines; test: MTT antiproliferative assay; type: cell-based, human; conditions: for IC50: Homo sapiens, read-out: MCF-7 (IC50 nM)
[7] = test system: progesterone receptor (PR); test: ERα functional antagonism cell assay (PR as biomarker) in MCF-7; type: cell-based; conditions: Homo sapiens, MCF7; progesterone receptor as biomarker for ERα antagonism in MCF-7
[8] = test system: MDA-MB-231 cell lines; test: MTT antiproliferative assay; type: cell-based, human; conditions: Homo sapiens, read-out: MDA-MB-231 (IC50 nM)
[9] = target: T1, ERα (Homo sapiens, UniProt P03372); test: ERα down-regulation immunofluorescence assay in MCF-7; type: cell-based; conditions: ERα downregulation measured in MCF-7; read-out: MCF-7 DR (IC50 nM)
T1 sequence (P03372 1-595): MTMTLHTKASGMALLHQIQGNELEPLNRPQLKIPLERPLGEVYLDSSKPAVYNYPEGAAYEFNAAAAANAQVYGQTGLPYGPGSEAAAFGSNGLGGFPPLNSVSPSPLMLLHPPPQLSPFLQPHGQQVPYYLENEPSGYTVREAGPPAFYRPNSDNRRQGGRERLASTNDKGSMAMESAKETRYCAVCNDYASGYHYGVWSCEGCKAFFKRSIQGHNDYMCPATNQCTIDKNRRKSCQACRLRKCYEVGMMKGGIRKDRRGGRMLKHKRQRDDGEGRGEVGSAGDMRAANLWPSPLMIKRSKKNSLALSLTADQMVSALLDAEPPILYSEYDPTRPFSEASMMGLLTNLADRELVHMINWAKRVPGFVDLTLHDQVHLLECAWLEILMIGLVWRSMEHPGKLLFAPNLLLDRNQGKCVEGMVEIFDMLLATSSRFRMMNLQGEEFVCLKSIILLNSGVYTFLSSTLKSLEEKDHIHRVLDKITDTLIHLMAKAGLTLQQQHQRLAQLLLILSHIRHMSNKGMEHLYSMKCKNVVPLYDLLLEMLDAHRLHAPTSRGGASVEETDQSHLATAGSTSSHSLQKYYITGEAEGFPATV

[10] = Pharmacokinetics study, oral bioavailability; conditions: rat
[11] = MTT antiproliferative assay (neutral control); conditions: human
[12] = target: ERβ (Homo sapiens, UniProt Q92731); test: Fluorescence polarization competition assay: antagonistic potency and relative binding affinity; conditions: for Ki: calculated antagonistic (inhibitory) constant, read-out: Ka ERβ; for IC50: concentration that antagonizes 50% of ERβ signaling activity, read-out: ERβ (IC50 nM); for logRBA ERβ: log of % relative binding affinity, estradiol = 100%
[13] = Liver oxidative stress markers after treatment of MNU-induced rats; type: in vivo, Wistar rats; conditions: liver; for CAT: catalase activity; for GSH: reduced glutathione; for SOD (U/mg): superoxide dismutase activity; for TP: total protein content
Summary of the method: as §1

[14] = test system: MCF-7 cells; test: Cell cycle distribution by flow cytometry; type: cell-based, human; conditions: 24 h
[15] = dose 50 mg/kg (compounds per os after MNU; MNU alone i.p.)
[16] = MDA-MB-231, growth inhibition, 48 h

Chain of ERβ (Q92731 whole entry): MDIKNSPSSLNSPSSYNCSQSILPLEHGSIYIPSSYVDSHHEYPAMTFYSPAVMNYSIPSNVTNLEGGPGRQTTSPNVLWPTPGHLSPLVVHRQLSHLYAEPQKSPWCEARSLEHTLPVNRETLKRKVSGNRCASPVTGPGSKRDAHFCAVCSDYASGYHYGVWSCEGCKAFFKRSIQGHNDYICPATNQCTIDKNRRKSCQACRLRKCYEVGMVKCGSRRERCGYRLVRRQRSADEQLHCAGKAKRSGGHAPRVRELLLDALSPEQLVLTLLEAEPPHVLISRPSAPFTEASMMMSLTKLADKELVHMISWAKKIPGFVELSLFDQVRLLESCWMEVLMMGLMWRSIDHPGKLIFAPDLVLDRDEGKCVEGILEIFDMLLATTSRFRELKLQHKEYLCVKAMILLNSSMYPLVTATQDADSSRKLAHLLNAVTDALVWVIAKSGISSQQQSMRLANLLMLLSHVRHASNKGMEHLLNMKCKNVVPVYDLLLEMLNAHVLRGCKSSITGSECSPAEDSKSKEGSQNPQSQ

## CNCCOc1ccc(C(=O)O[C@@H]2/C=C/C(=O)O[C@@H](O)CCC/C=C/[C@@H]3C[C@H](O)C[C@H]32)cc1C(C)=O [Compound 3DPQ-1, (1R,2E,6R,10E,11aS,13S,14aR)-6,13-dihydroxy-4-oxo-4,6,7,8,9,11a,12,13,14,14a-decahydro-1H-cyclopenta[f][1]oxacyclotridecin-1-yl 3-acetyl-4-(2-(methylamino)ethoxy)benzoate]
[1]; higher concentration (1 nM)
  p53 promoter activity, fold higher than the one provoked by Ral: 0.66 fold
[1]; lower concentration (0.1 nM)
  p53 promoter activity, fold higher than the one provoked by Ral: 0.733 fold
[2]; dose 5 mg/kg per os after MNU
  Tumor Burden (week): 3.38 ± 0.31 ^i,*^,†,‖ week
  Tumor Latency (week): 9 * week
  Tumor Volume (mm^3): 1.09 ± 0.23 *^,†,‡,‖ mm^3
[2]; [15]
  Tumor Burden (week): 2.04 ± 0.35 *^,†,§,┴ week
  Tumor Latency (week): 12 *^,† week
  Tumor Volume (mm^3): 0.68 ± 0.35 *^,†,§,┴ mm^3
[3]
  logD at 30 min: 1.94
[4]
  WL after MFD (day 1, mg): 310.34 ± 0.34 ^i mg
[5]; dose 5 mg/kg
  ALP (A/L): 104.53±0.75 A/L
  ALT (A/L): 51.63±0.32 A/L
  AST (U/L): 44.78±0.61 U/L
  γ-GT (U/L): 13.54±1.74 U/L
  TBC: 15.43±0.32
[5]; dose 50 mg/kg
  ALP (A/L): 107.52±0.6 A/L
  ALT (A/L): 53.43±1.34 A/L
  AST (U/L): 49.54±0.65 U/L
  γ-GT (U/L): 16.43±0.76 U/L
  TBC: 19.41
[6]; MCF7, growth inhibition, 48 h
  IC50: 0.76 ± 0.24 nM
[6]; ratio of IC50 values
  MCF-7 antiproliferative potency, fold higher than Ral: 1.17 fold
[6]; selectivity index [IC50(MDA-MB-231)]/[IC50(MCF-7)]
  SI: 95.31 ^‡,§
[7]
  IC50: > 100 nM
[8]; [16]
  IC50: 72.44 ± 0.32 nM
[9]
  IC50: > 100 nM
[10]; oral 5 mg/kg
  BIO: 91
[10]; oral 50 mg/kg
  BIO: 94
[11]
  IC50 at 48 h: > 100 nM
[12]
  Ki: 41.8 nM
  IC50: 74.33 ± 0.46 nM
  logRBA ERβ: 0.08 ^†,‡,§
[13]; dose 5 mg/kg
  CAT: 16.21±0.77
  TBARS: 0.96 nmol/mg
  SOD (U/mg): 7.65±0.63 U/mg
[13]; dose 50 mg/kg
  CAT: 17.35±0.56
  TBARS: 0.65 nmol/mg
  GSH: 9.35 ± 0.45 mg/g
  SOD (U/mg): 8.83±0.51 U/mg
  TP: 37.21 g/L
[14]; 0.1 nM
  Cell Cycle (%) G0/G1: 72.62 ± 2.47 *^,†,‡,§ %
  Cell Cycle (%) G2/M: 17.40 ± 3.63 *^,†,‡,§ %
  Cell Cycle (%) S: 9.98 ± 1.65 *^,†,‡,§ %
[14]; 1 nM
  Cell Cycle (%) G0/G1: 75.08 ± 2.13 *^,†,‡,§ %
  Cell Cycle (%) G2/M: 14.24 ± 2.54 *^,†,‡,§ %
  Cell Cycle (%) S: 10.69 ± 1.42 *^,†,‡,§ %

## CC(=O)c1cc(C(=O)O[C@@H]2/C=C/C(=O)O[C@@H](O)CCC/C=C/[C@@H]3C[C@H](O)C[C@H]32)ccc1OCCN1CCCC(O)C1=O (stereo partly drawn) [Compound 3DPQ-12, (1R,2E,6R,10E,11aS,13S,14aR)-6,13-dihydroxy-4-oxo-4,6,7,8,9,11a,12,13,14,14a-decahydro-1H-cyclopenta[f][1]oxacyclotridecin-1-yl 3-acetyl-4-(2-(3-hydroxy-2-oxopiperidin-1-yl)ethoxy)benzoate]
[1]; higher concentration (1 nM)
  p53 promoter activity, fold higher than the one provoked by Ral: 0.55 fold
[1]; lower concentration (0.1 nM)
  p53 promoter activity, fold higher than the one provoked by Ral: 0.65 fold
[2]; dose 5 mg/kg per os after MNU
  Tumor Burden (week): 2.24 ± 0.54 *^,†,‡,‖ week
  Tumor Latency (week): 12 *^,†,‡ week
  Tumor Volume (mm^3): 0.67 ± 0.22 *^,†,‡,‖ mm^3
[2]; [15]
  Tumor Burden (week): 0.94 ± 0.35 *^,†,§,┴ week
  Tumor Latency (week): 15 *^,†,§ week
  Tumor Volume (mm^3): 0.34 ± 0.11 *^,†,§,┴ mm^3
[3]
  logD at 30 min: 2.06
[4]
  WL after MFD (day 1, mg): 305.06 ± 0.94 mg
[5]; dose 5 mg/kg
  ALP (A/L): 132.67±0.43 A/L
  ALT (A/L): 50.99±0.84 A/L
  AST (U/L): 51.54±0.74 U/L
  γ-GT (U/L): 13.53 U/L
  TBC: 19.28
[5]; dose 50 mg/kg
  ALP (A/L): 121.33±0.23 A/L
  ALT (A/L): 59.65±0.84 A/L
  AST (U/L): 52.69±0.95 U/L
  γ-GT (U/L): 15.54±0.83 U/L
  TBC: 23.43
[6]; MCF7, growth inhibition, 48 h
  IC50: 0.56 ± 0.11 nM
[7]
  IC50: > 100 nM
[8]; [16]
  IC50: 82.84 ± 0.61 nM
[9]
  IC50: > 100 nM
[10]; oral 5 mg/kg
  BIO: 93 ^‡
[10]; oral 50 mg/kg
  BIO: 96
[11]
  IC50 at 48 h: > 100 nM
[12]
  Ki: 50.3 nM
  IC50: 89.45 ± 0.31 nM
  logRBA ERβ: 0.00 ^†,‡,§
[13]; dose 5 mg/kg
  CAT: 14.55±0.51
  TBARS: 0.92 nmol/mg
  GSH: 8.96 mg/g
  SOD (U/mg): 5.43±0.25 U/mg
  TP: 336.12 g/L
[13]; dose 50 mg/kg
  CAT: 19.46±0.75
  TBARS: 1.05 nmol/mg
  GSH: 9.02 mg/g
  SOD (U/mg): 13.32±0.43 U/mg
  TP: 389.35 g/L
[14]; 0.1 nM
  Cell Cycle (%) G0/G1: 77.83 ± 0.92 *^,†,‡,§ %
  Cell Cycle (%) G2/M: 5.21 ± 2.54 *^,†,‡,§ %
  Cell Cycle (%) S: 16.96 ± 1.23 *^,†,‡,§ %
[14]; 1 nM
  Cell Cycle (%) G0/G1: 80.29 ± 1.24 *^,†,‡,§ %
  Cell Cycle (%) G2/M: 2.05 ± 1.43 *^,†,‡,§ %
  Cell Cycle (%) S: 17.67 ± 1.32 *^,†,‡,§ %

## CC(=O)c1cc(C(=O)OC2/C=C/C(=O)O[C@@H](O)CCC/C=C/[C@@H]3C[C@H](O)C[C@@H]23)ccc1OCCN1CCC=C(C(=O)O)C1 (stereo partly drawn) [Compound 3DPQ-3, 1-(2-(2-acetyl-4-((((2E,6R,10E,11aS,13S,14aR)-6,13-dihydroxy-4-oxo-4,6,7,8,9,11a,12,13,14,14a-decahydro-1H-cyclopenta[f][1]oxacyclotridecin-1-yl)oxy)carbonyl)phenoxy)ethyl)-1,2,5,6-tetrahydropyridine-3-carboxylic acid]
[1]; higher concentration (1 nM)
  p53 promoter activity, fold higher than the one provoked by Ral: 0.61 fold
[1]; lower concentration (0.1 nM)
  p53 promoter activity, fold higher than the one provoked by Ral: 0.68 fold
[2]; dose 5 mg/kg per os after MNU
  Tumor Burden (week): 2.18 ± 0.69 *^,†,‡,‖ week
  Tumor Latency (week): 12 *^,†,‡ week
  Tumor Volume (mm^3): 0.78 ± 0.43 *^,†,‡,‖ mm^3
[2]; [15]
  Tumor Burden (week): 1.16 ± 0.64 *^,†,§,┴ week
  Tumor Latency (week): 15 *^,†,§ week
  Tumor Volume (mm^3): 0.66 ± 0.21 *^,†,§,┴ mm^3
[3]
  logD at 30 min: 2.07
[4]
  WL after MFD (day 1, mg): 320,45 ± 0.62 mg
[5]; dose 5 mg/kg
  ALP (A/L): 87.47±0.21 A/L
  ALT (A/L): 49.84±0.59 A/L
  AST (U/L): 58.43±0.31 U/L
  γ-GT (U/L): 10.36±0.45 U/L
  TBC: 17.54±0.36
[5]; dose 50 mg/kg
  ALP (A/L): 86.65±0.44 A/L
  ALT (A/L): 55.84±0.79 A/L
  AST (U/L): 61.63±0.47 U/L
  γ-GT (U/L): 11.64±0.84 U/L
  TBC: 20.32
[6]; MCF7, 48 h
  IC50: 0.61 ± 0.56 nM
[6]; ratio of IC50 values
  MCF-7 antiproliferative potency, fold higher than Ral: 1.43 fold
  MCF-7 antiproliferative potency, fold lower than 3DPQ-12: 1.11 fold
[7]
  IC50: > 100 nM
[8]; MDA-MB-231, 48 h
  IC50: 86.63 ± 0.68 nM
[9]
  IC50: > 100 nM
[10]; oral 5 mg/kg
  BIO: 90
[10]; oral 50 mg/kg
  BIO: 93
[11]
  IC50 at 48 h: > 100 nM
[12]
  Ki: 42.1 nM
  IC50: 74.86 ± 0.14 nM
  logRBA ERβ: 0.08 ^†,‡,§
[13]; dose 5 mg/kg
  CAT: 17.46±0.82
  TBARS: 0.24 nmol/mg
  GSH: 9.15 mg/g
  SOD (U/mg): 7.32±0.18 U/mg
  TP: 38.32 g/L
[13]; dose 50 mg/kg
  CAT: 18.32±0.63
  TBARS: 0.56 ± 0.32 nmol/mg
  GSH: 9.74 mg/g
  SOD (U/mg): 11.46±0.36 U/mg
  TP: 46.47 g/L
[14]; 0.1 nM
  Cell Cycle (%) G0/G1: 72.99 ± 1.32 *^,†,‡,§ %
  Cell Cycle (%) G2/M: 18.03 ± 1.65 *^,†,‡,§ %
  Cell Cycle (%) S: 8.98 ± 1.64 *^,†,‡,§ %
[14]; 1 nM
  Cell Cycle (%) G0/G1: 75.45 ± 1.53 *^,†,‡,§ %
  Cell Cycle (%) G2/M: 14.87 ± 2.43 *^,†,‡,§ %
  Cell Cycle (%) S: 9.69 ± 0.94 *^,†,‡,§ %
